Where “and” joins values, the source holds several entries; their conditions need not be identical. Equal values may be shown once.
Details: 101.33 kPa, Liquid; for mass density: Vibrating tube method; for speed of sound: Single path-length method

CCCCCCCC[n+]1ccn(C)c1.F[P-](F)(F)(F)(F)F [1-octyl-3-methylimidazolium hexafluorophosphate]
Details | viscosity
269.96 K, Cone and plate viscometry | 8278 mPa·s
270.27 K, Cone and plate viscometry | 7970.4 mPa·s
270.37 K, Cone and plate viscometry | 7819.7 mPa·s
270.91 K, Cone and plate viscometry | 7509 mPa·s
271.66 K, Cone and plate viscometry | 6771 mPa·s
272.33 K, Cone and plate viscometry | 6420 mPa·s
272.44 K, Cone and plate viscometry | 6269.6 mPa·s
273.24 K, Cone and plate viscometry | 5792.5 mPa·s
274.02 K, Cone and plate viscometry | 5350.3 mPa·s
274.63 K, Cone and plate viscometry | 4992.4 mPa·s
274.8 K, Cone and plate viscometry | 4951.8 mPa·s
274.81 K, Cone and plate viscometry | 4903 mPa·s
274.88 K, Cone and plate viscometry | 4879 mPa·s
275.31 K, Cone and plate viscometry | 4651.9 mPa·s
275.44 K, Cone and plate viscometry | 4635.1 mPa·s
275.56 K, Cone and plate viscometry | 4593.6 mPa·s
276.14 K, Cone and plate viscometry | 4334 mPa·s
276.34 K, Cone and plate viscometry | 4268.2 mPa·s
276.47 K, Cone and plate viscometry | 4216.3 mPa·s
276.9 K, Cone and plate viscometry | 4053 mPa·s
277.09 K, Cone and plate viscometry | 3957.1 mPa·s
277.68 K, Cone and plate viscometry | 3777 mPa·s
277.76 K, Cone and plate viscometry | 3737 mPa·s
277.85 K, Cone and plate viscometry | 3693.3 mPa·s
278.15 K, Concentric cylinders viscometry | 3543 mPa·s
278.46 K, Cone and plate viscometry | 3522.8 mPa·s
278.6 K, Cone and plate viscometry | 3439.8 mPa·s
279.19 K, Cone and plate viscometry | 3241 mPa·s
279.24 K, Cone and plate viscometry | 3279.4 mPa·s
279.34 K, Cone and plate viscometry | 3221.2 mPa·s
280.01 K, Cone and plate viscometry | 3050.1 mPa·s
280.09 K, Cone and plate viscometry | 3002.8 mPa·s
280.77 K, Cone and plate viscometry | 2845.3 mPa·s
280.78 K, Cone and plate viscometry | 2866 mPa·s
280.84 K, Cone and plate viscometry | 2803.8 mPa·s
281.53 K, Cone and plate viscometry | 2656.6 mPa·s
281.59 K, Cone and plate viscometry | 2620.4 mPa·s
282.29 K, Cone and plate viscometry | 2486.9 mPa·s
282.33 K, Cone and plate viscometry | 2458 mPa·s
282.53 K, Cone and plate viscometry | 2412.6 mPa·s
283.04 K, Cone and plate viscometry | 2331.3 mPa·s
283.08 K, Cone and plate viscometry | 2299.1 mPa·s
283.15 K, Concentric cylinders viscometry | 2263.1 mPa·s
283.79 K, Cone and plate viscometry | 2174 mPa·s
283.83 K, Cone and plate viscometry | 2154.4 mPa·s
284.54 K, Cone and plate viscometry | 2037.4 mPa·s
284.55 K, Cone and plate viscometry | 2001 mPa·s
284.58 K, Cone and plate viscometry | 2017.2 mPa·s
285.28 K, Cone and plate viscometry | 1916 mPa·s
285.32 K, Cone and plate viscometry | 1893.2 mPa·s
286.03 K, Cone and plate viscometry | 1799.7 mPa·s
286.06 K, Cone and plate viscometry | 1779.6 mPa·s
286.78 K, Cone and plate viscometry | 1697.1 mPa·s
286.8 K, Cone and plate viscometry | 1672.4 mPa·s
287.52 K, Cone and plate viscometry | 1594.4 mPa·s
287.55 K, Cone and plate viscometry | 1572.8 mPa·s
288.15 K, Concentric cylinders viscometry | 1475.1 mPa·s
288.27 K, Cone and plate viscometry | 1496.8 mPa·s
288.29 K, Cone and plate viscometry | 1479.3 mPa·s
289.02 K, Cone and plate viscometry | 1407.5 mPa·s
289.03 K, Cone and plate viscometry | 1391.9 mPa·s
289.76 K, Cone and plate viscometry | 1327.8 mPa·s
289.78 K, Cone and plate viscometry | 1313.9 mPa·s
290.5 K, Cone and plate viscometry | 1253.5 mPa·s
290.52 K, Cone and plate viscometry | 1241 mPa·s
291.24 K, Cone and plate viscometry | 1183.2 mPa·s
291.27 K, Cone and plate viscometry | 1168.4 mPa·s
291.98 K, Cone and plate viscometry | 1115.8 mPa·s
292 K, Cone and plate viscometry | 1101.8 mPa·s
292.73 K, Cone and plate viscometry | 1053.3 mPa·s
292.75 K, Cone and plate viscometry | 1040.1 mPa·s
293.15 K, Concentric cylinders viscometry | 1001.1 mPa·s
293.48 K, Cone and plate viscometry | 994.4 mPa·s
293.49 K, Cone and plate viscometry | 984.3 mPa·s
294.22 K, Cone and plate viscometry | 932.9 mPa·s
294.25 K, Cone and plate viscometry | 929.4 mPa·s
294.96 K, Cone and plate viscometry | 882.6 mPa·s
295.02 K, Cone and plate viscometry | 879.2 mPa·s
295.71 K, Cone and plate viscometry | 844.7 mPa·s
295.79 K, Cone and plate viscometry | 829.3 mPa·s
296.47 K, Cone and plate viscometry | 798 mPa·s
296.57 K, Cone and plate viscometry | 784.2 mPa·s
297.2 K, Cone and plate viscometry | 757 mPa·s
297.33 K, Cone and plate viscometry | 741.5 mPa·s
297.94 K, Cone and plate viscometry | 718 mPa·s
298.08 K, Cone and plate viscometry | 705.1 mPa·s
298.15 K, Concentric cylinders viscometry | 691.2 mPa·s
298.69 K, Cone and plate viscometry | 682.3 mPa·s
298.82 K, Cone and plate viscometry | 668.2 mPa·s
299.43 K, Cone and plate viscometry | 647.5 mPa·s
299.55 K, Cone and plate viscometry | 632.9 mPa·s
300.16 K, Cone and plate viscometry | 614.6 mPa·s
300.28 K, Cone and plate viscometry | 601.2 mPa·s
300.91 K, Cone and plate viscometry | 584.1 mPa·s
301 K, Cone and plate viscometry | 572.3 mPa·s
301.65 K, Cone and plate viscometry | 555.5 mPa·s
301.73 K, Cone and plate viscometry | 545 mPa·s
302.39 K, Cone and plate viscometry | 528.9 mPa·s
302.46 K, Cone and plate viscometry | 519.8 mPa·s
303.14 K, Cone and plate viscometry | 502.9 mPa·s
303.15 K, Concentric cylinders viscometry | 490 mPa·s
303.19 K, Cone and plate viscometry | 494.3 mPa·s
303.88 K, Cone and plate viscometry | 478.8 mPa·s
303.92 K, Cone and plate viscometry | 470.6 mPa·s
304.62 K, Cone and plate viscometry | 450.9 mPa·s
304.65 K, Cone and plate viscometry | 449.1 mPa·s
305.37 K, Cone and plate viscometry | 434.2 mPa·s
305.39 K, Cone and plate viscometry | 429.1 mPa·s
306.11 K, Cone and plate viscometry | 414.9 mPa·s
306.13 K, Cone and plate viscometry | 409.9 mPa·s
306.85 K, Cone and plate viscometry | 396 mPa·s
306.86 K, Cone and plate viscometry | 390.9 mPa·s
307.59 K, Cone and plate viscometry | 378 mPa·s
307.6 K, Cone and plate viscometry | 372.5 mPa·s
308.34 K, Cone and plate viscometry | 361 mPa·s
308.35 K, Cone and plate viscometry | 356 mPa·s
309.09 K, Cone and plate viscometry | 339.9 mPa·s and 344.9 mPa·s
309.82 K, Cone and plate viscometry | 329.8 mPa·s
309.84 K, Cone and plate viscometry | 325.7 mPa·s
310.57 K, Cone and plate viscometry | 311.5 mPa·s and 315.9 mPa·s
311.31 K, Cone and plate viscometry | 301.8 mPa·s
311.32 K, Cone and plate viscometry | 297.7 mPa·s
312.05 K, Cone and plate viscometry | 288.8 mPa·s
312.06 K, Cone and plate viscometry | 284.9 mPa·s
312.8 K, Cone and plate viscometry | 273.3 mPa·s and 275.7 mPa·s
313.15 K, Concentric cylinders viscometry | 266.1 mPa·s
313.54 K, Cone and plate viscometry | 264.8 mPa·s
313.55 K, Cone and plate viscometry | 262 mPa·s
314.28 K, Cone and plate viscometry | 254 mPa·s
314.29 K, Cone and plate viscometry | 251.2 mPa·s
315.03 K, Cone and plate viscometry | 240.6 mPa·s and 243.2 mPa·s
315.77 K, Cone and plate viscometry | 230.6 mPa·s and 233 mPa·s
316.51 K, Cone and plate viscometry | 221.6 mPa·s and 223.5 mPa·s
317.25 K, Cone and plate viscometry | 213.6 mPa·s
317.26 K, Cone and plate viscometry | 214.9 mPa·s
317.99 K, Cone and plate viscometry | 206.5 mPa·s
318 K, Cone and plate viscometry | 204 mPa·s
318.74 K, Cone and plate viscometry | 196.1 mPa·s and 198.4 mPa·s
319.48 K, Cone and plate viscometry | 188.3 mPa·s and 190.7 mPa·s
320.22 K, Cone and plate viscometry | 181 mPa·s and 183.1 mPa·s
320.96 K, Cone and plate viscometry | 174.4 mPa·s
320.97 K, Cone and plate viscometry | 176 mPa·s
321.71 K, Cone and plate viscometry | 168.1 mPa·s
321.72 K, Cone and plate viscometry | 169.5 mPa·s
322.44 K, Cone and plate viscometry | 163.6 mPa·s
322.46 K, Cone and plate viscometry | 161.6 mPa·s
323.19 K, Cone and plate viscometry | 155.4 mPa·s and 157.1 mPa·s
323.93 K, Cone and plate viscometry | 149.8 mPa·s
323.94 K, Cone and plate viscometry | 151.1 mPa·s
324.68 K, Cone and plate viscometry | 144.3 mPa·s
324.69 K, Cone and plate viscometry | 145.6 mPa·s
325.43 K, Cone and plate viscometry | 139.3 mPa·s
325.44 K, Cone and plate viscometry | 140.5 mPa·s
326.17 K, Cone and plate viscometry | 135.3 mPa·s
326.18 K, Cone and plate viscometry | 135.7 mPa·s
326.91 K, Cone and plate viscometry | 129.5 mPa·s
326.92 K, Cone and plate viscometry | 130.8 mPa·s
327.65 K, Cone and plate viscometry | 124.9 mPa·s
327.67 K, Cone and plate viscometry | 126 mPa·s
328.39 K, Cone and plate viscometry | 120.8 mPa·s
328.46 K, Cone and plate viscometry | 121.6 mPa·s
329.14 K, Cone and plate viscometry | 116.8 mPa·s and 117.6 mPa·s
329.88 K, Cone and plate viscometry | 112.8 mPa·s and 113.7 mPa·s
330.62 K, Cone and plate viscometry | 108.9 mPa·s
330.63 K, Cone and plate viscometry | 109.9 mPa·s
331.36 K, Cone and plate viscometry | 105.1 mPa·s
331.37 K, Cone and plate viscometry | 106 mPa·s
332.1 K, Cone and plate viscometry | 102.6 mPa·s

Details | mass density | speed of sound [m/s]
278.15 K | 1252.41 kg/m3 and 1252.42 kg/m3 | –
278.16 K | 1252.41 kg/m3 | –
283.15 K | 1248.4 kg/m3 [middle of 4 runs] | 1460.8
288.15 K | 1244.12 kg/m3 | –
293.15 K | 1240.16 kg/m3 and 1240.34 kg/m3 and 1240.35 kg/m3 | 1425.5
293.17 K | 1240.24 kg/m3 | –
298.15 K | 1236.18 kg/m3 | –
303.15 K | 1232.68 kg/m3 and 1232.44 kg/m3 and 1232.4 kg/m3 | 1394.9
303.16 K | 1232.32 kg/m3 | –
313.15 K | 1224.86 kg/m3 and 1224.73 kg/m3 and 1224.76 kg/m3 | –
313.16 K | 1224.63 kg/m3 | 1367
323.15 K | 1217.09 kg/m3 and 1217.15 kg/m3 | 1342
323.16 K | 1217.34 kg/m3 | –

— the NIST ThermoML archive (doi:10.1016/j.jct.2018.04.018)
